Tested on: KMO
Assay: KMO activity assay: L-Kynurenine hydroxylation to 3-Hydroxy-Kynurenine, quantified by LC/MS
Assay type: biochemical
Conditions: compound at 10 uM; footnote: some portion of activity of amides may be due to contribution of acid precursor
Description: A generalized procedure for monitoring L-Kynurenine (KYN) hydroxylation to form product 3-Hydroxy-Kynurenine (3OH-KYN) by LC/MS is described below. Product is quantified by multiple reaction monitoring using MS.
A method of monitoring L-Kynurenine (KYN) hydroxylation to form product 3-Hydroxy-Kynurenine (3OH-KYN) by LC/MS is described below. Product is quantified by multiple reaction monitoring.
• Compound: Stock concentrations: 10 mM in 100% DMSO • Enzyme: KMO enzyme prepared at Evotec via mitochondria isolation from CHO-GST HIS KMO cells • Substrate: L-Kynurenine (Sigma: Cat #K3750) • [stock concentration: 10 mM in 100 mM potassium phosphate buffer, pH 7.4]
A method of monitoring L-Kynurenine (KYN) hydroxylation to form 3-Hydroxy-Kynurenine (3OH-KYN) by LC/MS is described. Product is quantified by multiple reaction monitoring (MRM method).

Row | Structure (SMILES) | % Inhibition at 10 uM [%]
1 | CC1(C)CC(C(N)=O)C(C)(C)N1C(=O)c1cc(-c2ccc(Cl)c(Cl)c2)ncn1 (stereo not shown) [1-[6-(3,4-Dichloro-phenyl)-pyrimidine-4-carbonyl]-2,2,5,5-tetramemyl-pyrrolidine-3-carboxylic acid amide] | 98.27
2 | NC(=O)C1CCN(C(=O)c2cc(-c3ccc(Cl)c(Cl)c3)ncn2)C1 (stereo not shown) [1-[6-(3,4-Dichloro-phenyl)-pyrimidine-4-carbonyl]-pyrrolidine-3-carboxylic acid amide] | 101.835
3 | O=C(NC1CC1)C1CCN(C(=O)c2cc(-c3ccc(Cl)c(Cl)c3)ncn2)C1 (stereo not shown) [1-[6-(3,4-Dichloro-phenyl)-pyrimidine-4-carbonyl]-pyrrolidine-3-carboxylic acid cyclopropylamide] | 91.815
4 | CNC(=O)C1CCN(C(=O)c2cc(-c3ccc(Cl)c(Cl)c3)ncn2)C1 (stereo not shown) [1-[6-(3,4-Dichloro-phenyl)-pyrimidine-4-carbonyl]-pyrrolidine-3-carboxylic acid methylamide] | 83.065
5 | O=C(O)C1CCN(C(=O)c2cc(-c3ccc(Cl)c(Cl)c3)ncn2)C1 (stereo not shown) [1-[6-(3,4-dichloro-phenyl)-pyrimidine-4-carbonyl]-pyrrolidine-3-carboxylic acid] | 101.855
6 | CON=C(C)c1cc(-c2cccc(Cl)c2)ncn1 [1-[6-(3-Chloro-phenyl)-pyrimidin-4-yl]-ethanone O-methyl-oxime] | 102.2
7 | CC(=O)c1cc(-c2cccc(Cl)c2)ncn1 [1-[6-(3-Chloro-phenyl)-pyrimidin-4-yl]-ethanone] | 97.49
8 | O=C(CCN1CCCC1)N1CCN(C(=O)c2cc(-c3ccc(Cl)c(Cl)c3)ncn2)CC1 [1-{4-[6-(3,4-Dichloro-phenyl)-pyrimidine-4-carbonyl]-piperazin-1-yl}-3-pyrrolidin-1-yl-propan-1-one] | 68.48
9 | CC(=O)N1CCN(C(=O)c2cc(-c3ccc(Cl)c(Cl)c3)ncn2)CC1 [1-{4-[6-(3,4-Dichloro-phenyl)-pyrimidine-4-carbonyl]-piperazin-1-yl}-ethanone] | 100.06
10 | O=C(c1cc(-c2ccc(Cl)c(Cl)c2)ncn1)N1CCN2C(=O)CCC2C1 (stereo not shown) [2-[6-(3,4-Dichloro-phenyl)-pyrimidine-4-carbonyl]-hexahydro-pyrrolo[1,2-a]pyrazin-6-one] | 97.22
11 | CC(C)COC(=O)c1cc(-c2ccc(Cl)c(Cl)c2)ncn1 [2-methylpropyl 6-(3,4-dichlorophenyl)pyrimidine-4-carboxylate] | 100
12 | O=C(NS(=O)(=O)c1cccc(Cl)c1)c1cc(-c2ccc(Cl)c(Cl)c2)ncn1 [3-Chloro-N-[6-(3,4-dichloro-phenyl)-pyrimidine-4-carbonyl]-benzenesulfonamide] | 102.26
13 | O=C(NS(=O)(=O)c1cccc(Cl)c1)c1cc(-c2cccc(Cl)c2)ncn1 [3-Chloro-N-[6-(3-chloro-phenyl)-pyrimidine-4-carbonyl]-benzenesulfonamide] | 101.57
14 | O=C1OCc2c1ncnc2-c1ccc(Cl)c(Cl)c1 [4-(3,4-dichloro-phenyl)-5H-furo[3,4-d]pyrimidin-7-one] | 94
15 | O=C1CN(C(=O)c2cc(-c3ccc(Cl)c(Cl)c3)ncn2)CCN1CCN1CCOCC1 [4-[6-(3,4-Dichloro-phenyl)-pyrimidine-4-carbonyl]-1-(2-morpholin-4-yl-ethyl)-piperazin-2-one] | 98.7
16 | O=C1CN(C(=O)c2cc(-c3ccc(Cl)c(Cl)c3)ncn2)CCN1CCN1CCCC1 [4-[6-(3,4-Dichloro-phenyl)-pyrimidine-4-carbonyl]-1-(2-pyrrolidin-1-yl-ethyl)-piperazin-2-one] | 99.275

Row | Structure (SMILES) | % Inhibition at 10 uM [%]
17 | O=C1CN(C(=O)c2cc(-c3ccc(Cl)c(Cl)c3)ncn2)CCN1CC1CCOCC1 [4-[6-(3,4-Dichloro-phenyl)-pyrimidine-4-carbonyl]-1-(tetrahydro-pyran-4-ylmethyl)-piperazin-2-one] | 99.91
18 | CN1CCN(C(=O)c2cc(-c3ccc(Cl)c(Cl)c3)ncn2)CC1=O [4-[6-(3,4-Dichloro-phenyl)-pyrimidine-4-carbonyl]-1-methyl-piperazin-2-one] | 87.44
19 | CC1C(=O)NCCN1C(=O)c1cc(-c2ccc(Cl)c(Cl)c2)ncn1 (stereo not shown) [4-[6-(3,4-Dichloro-phenyl)-pyrimidine-4-carbonyl]-3-methyl-piperazin-2-one] | 97.9
20 | O=C1CN(C(=O)c2cc(-c3ccc(Cl)c(Cl)c3)ncn2)CCN1 [4-[6-(3,4-Dichloro-phenyl)-pyrimidine-4-carbonyl]-piperazin-2-one] | 101.6
21 | O=C1CN(C(=O)c2cc(-c3ccc(F)c(F)c3)ncn2)CCN1 [4-[6-(3,4-Difluoro-phenyl)-pyrimidine-4-carbonyl]-piperazin-2-one] | 100.995
22 | O=C1CN(C(=O)c2cc(-c3cccc(Br)c3)ncn2)CCN1 [4-[6-(3-Bromo-phenyl)-pyrimidine-4-carbonyl]-piperazin-2-one] | 96.625
23 | O=C1CN(C(=O)c2cc(-c3ccc(F)c(Cl)c3)ncn2)CCN1 [4-[6-(3-Chloro-4-fluoro-phenyl)-pyrimidine-4-carbonyl]-piperazin-2-one] | 100.85
24 | O=C(N[C@H]1CCCc2ccccc21)c1cc(-c2ccc(Cl)c(Cl)c2)ncn1 [6-(3,4-Dichloro-phenyl)-pyrimidine-4-carboxylic acid (1,2,3,4-tetrahydro-naphthalen-1S-yl)-amide] | 95.92
25 | O=C(NC1CN2CCC1CC2)c1cc(-c2ccc(Cl)c(Cl)c2)ncn1 (stereo not shown) [6-(3,4-Dichloro-phenyl)-pyrimidine-4-carboxylic acid (1-aza-bicyclo[2.2.2]oct-3-yl)-amide] | 100.905
26 | Cl.O=C(NCC12CCN(CC1)CC2)c1cc(-c2ccc(Cl)c(Cl)c2)ncn1 [6-(3,4-Dichloro-phenyl)-pyrimidine-4-carboxylic acid (1-aza-bicyclo[2.2.2]oct-4-ylmethyl)-amide hydrochloride salt] | 65.78
27 | Cn1nc(NC(=O)c2cc(-c3ccc(Cl)c(Cl)c3)ncn2)c2ccccc21 [6-(3,4-Dichloro-phenyl)-pyrimidine-4-carboxylic acid (1-methyl-1H-indazol-3-yl)-amide] | 93.95
28 | Cn1ccc(NC(=O)c2cc(-c3ccc(Cl)c(Cl)c3)ncn2)n1 [6-(3,4-Dichloro-phenyl)-pyrimidine-4-carboxylic acid (1-methyl-1H-pyrazol-3-yl)-amide] | 100.05
29 | O=C(NC1(c2ccccc2)CC1)c1cc(-c2ccc(Cl)c(Cl)c2)ncn1 [6-(3,4-Dichloro-phenyl)-pyrimidine-4-carboxylic acid (1-phenyl-cyclopropyl)-amide] | 96.68
30 | CC(NC(=O)c1cc(-c2ccc(Cl)c(Cl)c2)ncn1)C1CCNCC1.Cl (stereo not shown) [6-(3,4-Dichloro-phenyl)-pyrimidine-4-carboxylic acid (1-piperidin-4-yl-ethyl)-amide hydrochloride salt] | 85.09
31 | CC1(C)CC(NC(=O)c2cc(-c3ccc(Cl)c(Cl)c3)ncn2)CC(C)(C)N1.Cl [6-(3,4-Dichloro-phenyl)-pyrimidine-4-carboxylic acid (2,2,6,6-tetramethyl-piperidin-4-yl)-amide hydrochloride salt] | 99.59

Source: US9428464B2, “Kynurenine-3-monooxygenase inhibitors, pharmaceutical compositions, and methods of use thereof” (CHDI Foundation, Inc., priority 2011, dated 2016)
